We go through one compound from patent publication US20230115476A1, “DIETARY BUTYRATE AND ITS USES” (SOCIETE DES PRODUITS NESTLE S.A., priority 2019, published 2023).

Molecules are shown by their SMILES.

In data set [1] the test system is porcine pancreatic lipase (PPL). In words: In vitro lipolysis in simulated intestinal fluid (SIF), pH-stat. The data set is classed as in vitro ADME. The method, then:
(§1) 10 wt% oil in water emulsions stabilised by 0.3 wt% polyoxyethylene sorbitan mono-oleate (Tween® 80) were prepared by mixing the Tween 80 into the oil phase at 40° C., then mixing with the water phase using a magnetic stirrer. An emulsion was then created using a Hielscher UP 400S ultrasonic probe homogeniser equipped with a 5 mm diameter rod-like probe by applying 100% amplitude at 100% cycle for 2 minutes whilst the sample was cooled using ice water.
The lipid emulsion (2 mL) containing 200 mg of fat was subjected to gastrointestinal in vitro lipolysis. […]
The intestinal digestion step was performed in the pH stat where the pH was kept constant at 6.8 by addition of NaOH (0.05 M). […] During the intestinal phase of digestion, the kinetics of digestion were followed using a pH-stat (TIM856, Radiometer) technique and expressed as titratable acid (rather than fatty acid) that was calculated by the equation: […]
(§2) Since the digestion of dietary lipids involves lipases of both gastric and intestinal origin, lipid digestibility was assessed using two digestion models i) simulated intestinal fluid (SIF) with porcine pancreatic lipase (PPL) and ii) sequential digestion in simulated gastric fluid (SGF) with rabbit gastric lipase (RGL) followed by simulated intestinal fluid (SIF) with porcine pancreatic lipase (PPL).

The subject of data set [2] is rabbit gastric lipase (RGL) followed by porcine pancreatic lipase (PPL). In words: Sequential in vitro digestion, simulated gastric fluid (SGF) then SIF, pH-stat. In kind it is in vitro ADME. On the procedure:
as §1
The lipid emulsion (2 mL) containing 200 mg of fat was subjected to gastrointestinal in vitro lipolysis. […] For gastric digestion, the sample was incubated for 90 minutes with 8.5 mL of simulated gastric fluid (SGF), which consisted of 150 mM NaCl, 450 U/mL pepsin, 18 U/mL rabbit gastric lipase at 37° C. and a pH of 5.5.
The intestinal digestion step was performed in the pH stat where the pH was kept constant at 6.8 by addition of NaOH (0.05 M). […] The intestinal digestion step starts when the temperature reaches 37 ± 0.5° C. The pH was adjusted to pH 6.8 and after incubation of two minutes at this pH and temperature, a pancreatin solution (5 mM tris, 150 mM NaCl at pH 6.8) was added. The final composition of the intestinal fluid was 10 mM CaCl2, 12 mM mixed bile salts, 0.75 mM phospholipid, 150 mM NaCl and 4 mM tris(hydroxymethyl)aminomethane buffer. The intestinal digestion step was carried out for 3 hours in a titration manager from Radiometer. During the intestinal phase of digestion, the kinetics of digestion were followed using a pH-stat (TIM856, Radiometer) technique and expressed as titratable acid (rather than fatty acid) that was calculated by the equation: […]
as §2

The subject of another data set is colon epithelial cells. Particulars: Gillis et al. 2018; cited from earlier work.
Data set [3] relates to Enterobacteriaceae, Salmonella. The settings on record: following oral streptomycin administration; Byndloss 2017, Rivera-Chavez 2016; cited from earlier work.

For `CCCC(=O)OCC(COC(=O)CCC)OC(=O)CCC` [tributyrin], the “Initial rate of lipolysis” value in data set [1] (SIF alone, emulsion with 200 mg fat, pH 6.8, 37° C.) is 223 ± 59 µmol/min. Besides, the Extent of digestion in data set [1] (back titration to pH 11.5, overall extent after SIF and SGF-SIF (FIG. 2)) was 101.5 ± 0.9%. The “Initial lipolysis rate in SIF” value in data set [2] (SGF-SIF sequential digestion, 90 min SGF pH 5.5 first) is 44.1 ± 8.8 µmol/min. Also, the “Lipolysis by gastric lipase” value in data set [2] (indicated by decreased total fatty acid release in SIF after RGL in SGF) is reported as ~ 60%. Further, the “Hydrolysis in the stomach (gastric lipolysis)” value in data set [2] (overall conclusion in words) was “extensive hydrolysis in the stomach”. Also, the “Effect on antibiotic-induced lactate production” value in the data set on colon epithelial cells is given as “reduce antibiotic-induced lactate production”. Also, the “Effect on pathogen expansion” value in data set [3] is listed as “restrict pathogen expansion”.
